Results reported in the RepoRT retention time repository (doi:10.1021/acs.analchem.2c02893).

Assays:
Conditions in all cases: stereoisomer not certain
[1] = RP, Thermo Scientific Acclaim RSLC 120 C18, 100 × 2.1 mm, 2.2 µm, 30 °C, 0.2 mL/min, estimated dead time 1.1 min; A: 90% water + 10% methanol + 0.01% formic acid + 5 mM ammonium formate, pH 3.61; B: methanol + 0.01% formic acid + 5 mM ammonium formate, pH 3.61; gradient (min/%B) 0/1 1/1 2/39 13/99.9 15/99.9 15.1/1 20.1/1
[2] = RP, Waters ACQUITY UPLC BEH C18, 100 × 2.1 mm, 1.7 µm, 30 °C, 0.35 mL/min, estimated dead time 0.63 min; A: water + 0.01% formic acid + 5 mM ammonium formate, pH 3.71; B: acetonitrile + 0.01% formic acid, pH 3.71; gradient (min/%B) 0/10 3/10 22/100 30/100 30.1/10 40/10
[3] = RP, Thermo Scientific Acclaim RSLC 120 C18, 100 × 2.1 mm, 2.2 µm, 30 °C, 0.2 mL/min, estimated dead time 1.1 min; A: water + 0.1% formic acid, pH 2.6; B: methanol + 0.1% formic acid, pH 2.6; gradient (min/%B) 0/10 4/50 17/95 25/95 25.1/10 30/10
[4] = RP, Waters ACQUITY UPLC BEH C18, 100 × 2.1 mm, 1.7 µm, 35 °C, 0.35 mL/min, estimated dead time 0.63 min; A: water + 0.01% formic acid + 5 mM ammonium formate, pH 3.71; B: acetonitrile + 0.01% formic acid, pH 3.71; gradient (min/%B) 0/5 0.5/5 16/95 16.1/99 19/99 19.1/5 21/5

Structure (SMILES)	LC retention time [1] [min]	LC retention time [2] [min]	LC retention time [3] [min]	LC retention time [4] [min]
CCN(CC)CC(=O)Nc1c(C)cccc1C [Lidocaine]	4.54	5.29	4.46	4.18
NC(=O)c1ccccc1Oc1ccccc1 [Phenoxybenzamide]	7.79	11.5	9.15	8.66
C#CCN(C)C(C)Cc1ccccc1 (stereo unspecified) [Deprenyl/Selegiline]	–	5.98	4.32	4.53
CC(C)NCC(O)COc1cccc2ccccc12 (stereo unspecified) [Propranolol]	6.59	8.91	6.27	6.49
CC(C)NCC(O)COc1cccc2[nH]ccc12 (stereo unspecified) [Pindolol]	3.89	4.14	3.69	3.7
CCNC(C)Cc1cccc(C(F)(F)F)c1 (stereo unspecified) [Fenfluramine]	–	8.46	5.84	6.21
Nc1nc(N)nc(NC2CC2)n1 [Cyromazine]	2.78	1.06	2.06	1.23
c1cc2c(cc1CN1CCNCC1)OCO2 [Piperazine-1-Piperonyl]	–	2.63	2.56	3.2
CC(=O)Nc1ccc(S(=O)(=O)Nc2nc(C)cc(C)n2)cc1 [Sulfamethazine-N4-Acetyl]	4.59	5.03	5.06	4.03
CCNc1nc(Cl)nc(NC(C)C)n1 [Atrazine]	8.16	10.3	9.72	7.82
CCNCC(=O)Nc1c(C)cccc1C [Lidocaine-Nor]	4.33	3.59	3.97	3.56
NC(=O)N=C(N)N [Guanylurea]	–	0.83	–	0.86
CCC(C)C1OC2(C=CC1C)CC1CC(CC=C(C)C(OC3CC(OC)C(OC4CC(OC)C(NC)C(C)O4)C(C)O3)C(C)C=CC=C3COC4C(O)C(C)=CC(C(=O)O1)C34O)O2 (stereo unspecified) [Emamectin]	–	16.3	14.3	12.6
Nc1ncn[nH]1 [Amitrole]	1.44	0.91	–	0.88
CC(C)(C)NCC(O)c1ccc(O)c(CO)c1 (stereo unspecified) [Albuterol/Salbutamol]	–	1.28	2.71	1.92
O=c1[nH]c2ccccc2s1 [Benzothiazole-2-OH]	–	7.78	7.4	5.76
CCC(C)C1OC2(CCC1C)CC1CC(CC=C(C)C(OC3CC(OC)C(OC4CC(OC)C(O)C(C)O4)C(C)O3)C(C)C=CC=C3COC4C(O)C(C)=CC(C(=O)O1)C34O)O2 (stereo unspecified) [Ivermectin]	–	21.1	20.4	17
C[N+](C)(C)CCCl [Chlormequate]	–	0.84	–	0.84
NCC(O)c1ccccc1 (stereo unspecified) [Apophedrin (Phenylethanolamine)]	–	1.38	2.34	1.65
CC12CCC(=O)C=C1CCC1C2CCC2(C)C(O)CCC12 (stereo unspecified) [Testosterone]	–	11.6	12.2	8.76
COP(=O)(OC)C(O)C(Cl)(Cl)Cl (stereo unspecified) [Trichlorfon]	–	5.41	5.86	4.26
CCC(C)C1OC2(C=CC1C)CC1CC(CC=C(C)C(OC3CC(OC)C(OC4CC(OC)C(O)C(C)O4)C(C)O3)C(C)C=CC=C3COC4C(O)C(C)=CC(C(=O)O1)C34O)O2 (stereo unspecified) [Avermectin]	–	18.8	18.7	14.6

Structure (SMILES)	LC retention time [1] [min]	LC retention time [2] [min]	LC retention time [3] [min]	LC retention time [4] [min]
NCCc1cnc[nH]1 [Histamine]	1.58	0.99	–	0.94
CNC(=O)Oc1ccc(N(C)C)c(C)c1 [Aminocarb  (Metacil)]	5.15	–	–	–
CCOC(=O)C(CCc1ccccc1)NC(C)C(=O)N1C(C(=O)O)CC2CCCC21 (stereo unspecified) [Ramipril]	8.56	–	–	–
CC1C2Cc3ccc(O)cc3C1(C)CCN2CCc1ccccc1 (stereo unspecified) [Phenazocine]	6.08	–	–	–
COC(=O)Nc1cccc(OC(=O)Nc2cccc(C)c2)c1 [Phenmedipham]	8.75	–	–	–
CNc1nc(C)c(C)c(OC(=O)N(C)C)n1 [Pirimicarb-desmethyl]	5.89	–	–	–
CCCNC(C)C(=O)Nc1c(C)csc1C(=O)OC (stereo unspecified) [Carticaine (Articaine)]	4.69	–	–	–
Cc1cc(C(C)(C)C)c(O)c(C)c1CC1=NCCN1 [Oxymetazoline]	6.99	–	–	–
CCCN(CCC)C(=O)SCc1ccccc1 [Prosulfocarb]	11.9	–	–	–
COc1ccc(CCN2CCC(Nc3nc4ccccc4n3Cc3ccc(F)cc3)CC2)cc1 [Astemizole]	8.03	–	–	–
O=C(NC(=O)c1c(F)cccc1F)Nc1cc(Cl)c(OC(F)(F)C(F)F)c(Cl)c1 [Hexaflumuron]	11.8	–	–	–
COC(=O)C1=C(C)NC(C)=C(C(=O)OCC(C)C)C1c1ccccc1[N+](=O)[O-] (stereo unspecified) [Nisoldipine]	10.6	–	–	–
c1ccc2c(c1)Cc1ccccc1N1CCNCC21 (stereo unspecified) [Mianserine-Nor]	6.86	–	–	–
CCOP(=S)(OCC)SCCSCC [Disulfoton]	11.5	–	–	–
CC(C)CC(C)Nc1ccc(Nc2ccccc2)cc1 (stereo unspecified) [Diphenylamin-4-(dimethylbutylamino) (6PPD)]	9.92	–	–	–
COCCOCCOCCOC [Triglyme]	4.28	–	–	–
CCOc1cc(C(C)(C)C)ccc1C1COC(c2c(F)cccc2F)=N1 (stereo unspecified) [Etoxazole]	12.8	–	–	–
NC(=O)Nc1ccc(Cl)c(Cl)c1 [3-4-(dichlorophenyl)-urea]	7.99	–	–	–
Clc1ccc(C(Cn2ccnc2)OCc2c(Cl)cccc2Cl)c(Cl)c1 (stereo unspecified) [Isoconazole]	12.3	–	–	–
CC(C)(C)c1ccc(C(O)CCCN2CCC(C(O)(c3ccccc3)c3ccccc3)CC2)cc1 (stereo unspecified) [Terfenadine]	9.69	–	–	–
CCC(CC)COC(C(=O)OCCN(C)C)(c1ccccc1)c1ccccc1 [Denaverine]	11.6	–	–	–
CCOC(=O)C(C)OC(=O)c1cc(Oc2ccc(C(F)(F)F)cc2Cl)ccc1[N+](=O)[O-] (stereo unspecified) [Lactofen]	12.2	–	–	–

Structure (SMILES)	LC retention time [1] [min]	LC retention time [2] [min]	LC retention time [3] [min]	LC retention time [4] [min]
c1ccc2sc(N3CCOCC3)nc2c1 [2-(4-Morpholinyl)benzothiazole]	8.5	–	–	–
Cc1cc2c(s1)Nc1ccccc1N=C2N1CCN(C)CC1 [Olanzapine]	4.99	–	–	–
COc1ccc2c3c1OC1CC(O)C=CC31CCN(C)C2 (stereo unspecified) [Galantamine]	2.99	–	–	–
CSc1nc(N)nc(NC(C)(C)C)n1 [Irgarol-descyclopropyl]	8.43	–	–	–
CC=CCC1=C(C)C(OC(=O)C2C(C=C(C)C)C2(C)C)CC1=O (stereo unspecified) [Pyrethrins: Cinerin I]	12.9	–	–	–
COc1cc(O)c(C(=O)c2ccccc2)cc1S(=O)(=O)O [Benzophenone-4]	6.19	–	–	–
CCS(=O)c1c(C#N)nn(-c2c(Cl)cc(C(F)(F)F)cc2Cl)c1N (stereo unspecified) [Ethiprole]	9.32	–	–	–
NS(=O)(=O)Cc1noc2ccccc12 [Zonisamide]	4.53	–	–	–
COC(=O)C(C)Oc1cc(Cl)c(Cl)cc1Cl (stereo unspecified) [Fenoprop-methylester  (Silvex-methyester)]	11.5	–	–	–
CCCc1nn(C)c2c(=O)[nH]c(-c3cc(C(=O)CN4CCCCC4)ccc3OCC)nc12 [Piperiacetildenafil]	7.14	–	–	–
Cc1ccc(NC(=O)c2ccc(CN3CCN(C)CC3)cc2)cc1Nc1nccc(-c2cccnc2)n1 [Imatinib]	6.6	–	–	–
Nc1cccc2cc(S(=O)(=O)O)ccc12 [5-Aminonaphthalene-2-sulfonic acid]	3.27	–	–	–
CN1C(=O)CN=C(c2ccccc2F)c2cc(N)ccc21 [Flunitrazepam- 7-Amino]	5.41	–	–	–
CCCCN1CCCCC1C(=O)Nc1c(C)cccc1C (stereo unspecified) [Bupivacaine]	6.18	–	–	–
Clc1ccc2nsnc2c1NC1=NCCN1 [Tizanidine]	3.64	–	–	–
CC(C)=CC1C(C(=O)OCc2coc(Cc3ccccc3)c2)C1(C)C (stereo unspecified) [Bioresmethrin]	13.6	–	–	–
C#CCOc1cc(-n2nc(C(C)(C)C)oc2=O)c(Cl)cc1Cl [Oxadiargyl]	11.2	–	–	–
CC(C)Nc1nc(N)nc(Cl)n1 [Atrazine-desethyl]	5.73	–	–	–
OC(CCN1CCCCC1)(c1ccccc1)C1CCCCC1 (stereo unspecified) [Trihexyphenidyl. Benzhexol]	7.86	–	–	–
CN(C)CCOC(c1ccc(Cl)cc1)c1ccccn1 (stereo unspecified) [Carbinoxamine]	6.08	–	–	–
